Calls of active or inactive are those of the source. No cut-off for these calls is given here.
How the values were obtained:
[1] = tested on: HepG2; assay: Antiproliferative activity against human HepG2 cells assessed as inhibition of cell growth; type: functional, cell-based
[2] = tested on: U2OS; assay: Antiproliferative activity against human U2OS cells assessed as inhibition of cell growth; type: functional, cell-based
[3] = tested on: MCF7; assay: Antiproliferative activity against human MCF7 cells assessed as inhibition of cell growth; type: functional, cell-based
[4] = Cytotoxicity against human WI-38 cells assessed as inhibition of cell growth; type: toxicity, cell-based
[5] = tested on: HepG2; assay: Antiproliferative activity against human HepG2 cells assessed as change in cell viability at IC50 concentration; type: functional, cell-based
[6] = tested on: U2OS; assay: Antiproliferative activity against human U2OS cells assessed as change in cell viability at IC50 concentration; type: functional, cell-based
[7] = tested on: MCF7; assay: Antiproliferative activity against human MCF7 cells assessed as change in cell viability at IC50 concentration; type: functional, cell-based
[8] = tested on: HepG2; assay: Induction of morphological changes in human HepG2 cells assessed as cell detachment at IC50 concentration; type: functional, cell-based
[9] = tested on: U2OS; assay: Induction of morphological changes in human U2OS cells assessed as cell detachment at IC50 concentration; type: functional, cell-based
[10] = tested on: MCF7; assay: Induction of morphological changes in human MCF7 cells assessed as cell detachment at IC50 concentration; type: functional, cell-based
[11] = tested on: HepG2; assay: Induction of morphological changes in human HepG2 cells assessed as cell enlargement with vacuolated cytoplasm at IC50 concentration; type: functional, cell-based
[12] = tested on: U2OS; assay: Induction of morphological changes in human U2OS cells assessed as cell enlargement with vacuolated cytoplasm at IC50 concentration; type: functional, cell-based
[13] = tested on: MCF7; assay: Induction of morphological changes in human MCF7 cells assessed as cell enlargement with vacuolated cytoplasm at IC50 concentration; type: functional, cell-based
[14] = tested on: HepG2; assay: Induction of morphological changes in human HepG2 cells assessed as appearance of dense nuclei at IC50 concentration; type: functional, cell-based
[15] = tested on: U2OS; assay: Induction of morphological changes in human U2OS cells assessed as appearance of dense nuclei at IC50 concentration; type: functional, cell-based
[16] = tested on: MCF7; assay: Induction of morphological changes in human MCF7 cells assessed as appearance of dense nuclei at IC50 concentration; type: functional, cell-based
[17] = tested on: HepG2; assay: Induction of morphological changes in human HepG2 cells assessed as appearance of vesicular nuclei at IC50 concentration; type: functional, cell-based
[18] = tested on: U2OS; assay: Induction of morphological changes in human U2OS cells assessed as appearance of vesicular nuclei at IC50 concentration; type: functional, cell-based
[19] = tested on: MCF7; assay: Induction of morphological changes in human MCF7 cells assessed as appearance of vesicular nuclei at IC50 concentration; type: functional, cell-based
[20] = tested on: HepG2; assay: Induction of morphological changes in human HepG2 cells assessed as appearance of hyper chromatic nuclei at IC50 concentration; type: functional, cell-based
[21] = tested on: U2OS; assay: Induction of morphological changes in human U2OS cells assessed as appearance of hyper chromatic nuclei at IC50 concentration; type: functional, cell-based
[22] = tested on: MCF7; assay: Induction of morphological changes in human MCF7 cells assessed as appearance of hyper chromatic nuclei at IC50 concentration; type: functional, cell-based
[23] = tested on: HepG2; assay: Induction of morphological changes in human HepG2 cells assessed as appearance of degenerative features at IC50 concentration; type: functional, cell-based
[24] = tested on: U2OS; assay: Induction of morphological changes in human U2OS cells assessed as appearance of degenerative features at IC50 concentration; type: functional, cell-based
[25] = tested on: MCF7; assay: Induction of morphological changes in human MCF7 cells assessed as appearance of degenerative features at IC50 concentration; type: functional, cell-based
[26] = tested on: HepG2; assay: Inhibition of cell migration in human HepG2 cells assessed as wound confluence at IC50 concentration incubated for 4 hrs by scratch wound assay (reference value: 19.38 +/- 0.12 %); type: functional; set-up: scale not given: the % may be the effect or the level left
[27] = tested on: HepG2; assay: Inhibition of cell migration in human HepG2 cells assessed as wound confluence at IC50 concentration incubated for 10 hrs by scratch wound assay (reference value: 32.01 +/- 0.67 %); type: functional; set-up: scale not given: the % may be the effect or the level left
[28] = tested on: HepG2; assay: Inhibition of cell migration in human HepG2 cells assessed as wound confluence at IC50 concentration incubated for 24 hrs by scratch wound assay (reference value: 98.01 +/- 0.14 %); type: functional; set-up: scale not given: the % may be the effect or the level left
[29] = tested on: HepG2; assay: Cell cycle arrest in human HepG2 cells assessed as accumulation of cells at G0/G1 phase at IC50 concentration incubated for 48 hrs by PI staining based flow cytometric analysis (reference value: 58.2 %); type: functional
[30] = tested on: HepG2; assay: Cell cycle arrest in human HepG2 cells assessed as accumulation of cells at S phase at IC50 concentration incubated for 48 hrs by PI staining based flow cytometric analysis (reference value: 21.0 %); type: functional
[31] = tested on: HepG2; assay: Cell cycle arrest in human HepG2 cells assessed as accumulation of cells at G2/M phase at IC50 concentration incubated for 48 hrs by PI staining based flow cytometric analysis (reference value: 19.4 %); type: functional
[32] = tested on: HepG2; assay: Induction of apoptosis in human HepG2 cells assessed as viable cells at IC50 concentration by annexin V-FITC/7-AAD staining based flow cytometric analysis (reference value: 99.7 %); type: functional
[33] = tested on: HepG2; assay: Induction of apoptosis in human HepG2 cells assessed as early apoptotic cells at IC50 concentration by annexin V-FITC/7-AAD staining based flow cytometric analysis (reference value: 0.0 %); type: functional
[34] = tested on: HepG2; assay: Induction of apoptosis in human HepG2 cells assessed as late apoptotic cells at IC50 concentration by annexin V-FITC/7-AAD staining based flow cytometric analysis (reference value: 0.3 %); type: functional
[35] = tested on: HepG2; assay: Induction of apoptosis in human HepG2 cells assessed as late apoptotic cells at IC50 concentration by annexin V-FITC/7-AAD staining based flow cytometric analysis (reference value: 0.0 %); type: functional
[36] = tested on: HepG2; assay: Induction of apoptosis in human HepG2 cells assessed as apoptotic cells at IC50 concentration by annexin V-FITC/7-AAD staining based flow cytometric analysis (reference value: 0.28 %); type: functional
[37] = tested on: HepG2; assay: Induction of apoptosis in human HepG2 cells assessed as fold increase in p21 level by Western blot analysis; type: functional
[38] = tested on: HepG2; assay: Induction of apoptosis in human HepG2 cells assessed as fold increase in p27 level by Western blot analysis; type: functional
[39] = tested on: HepG2; assay: Induction of apoptosis in human HepG2 cells assessed as fold increase in p53 level by Western blot analysis; type: functional
[40] = Inhibition of cell migration in human […] cells at IC50 concentration incubated for 24 hrs relative to control; type: functional

Structure (SMILES) | IC50 [1] [µM] | IC50 [2] [µM] | IC50 [3] [µM] | IC50 [4] [µM] | Activity [5] | Activity [6] | Activity [7] | Activity [8] | Activity [9] | Activity [10] | Activity [11] | Activity [12] | Activity [13] | Activity [14] | Activity [15] | Activity [16] | Activity [17] | Activity [18] | Activity [19] | Activity [20] | other results
N=C(N)c1ccc(-c2ccc(-c3ccc(F)cc3)o2)nc1 | 1.06 | 1.72 | 1.6 | 89 | Active | Active | Active | Active | Active | Active | Active | Active | Active | Active | Active | Active | Active | Active | Active | Active | Activity [21]: Active; Activity [22]: Active; Activity [23]: Active; Activity [24]: Active; Activity [25]: Active; Activity [26]: 14.07%; Activity [27]: 32.89%; Activity [28]: 42.09%; Activity [29]: 19.4%; Activity [30]: 39.1%; Activity [31]: 41.4%; Activity [32]: 41.9%; Activity [33]: 47.4%; Activity [34]: 10.6%; Activity [35]: 0.1%; Activity [36]: 59.3%; fold change (FC) [37]: ~5; fold change (FC) [38]: ~3.1; fold change (FC) [39]: ~2.5; inhibition (INH) [40]: ~55%
N=C(N)c1ccc(-c2ccc(-c3cc(Cl)cc(Cl)c3)o2)nc1 | 1.87 | 1.81 | 1.69 | 101 | Active | Active | Active | Active | Active | Active | Active | Active | Active | Active | Active | Active | Active | Active | Active | Active | Activity [21]: Active; Activity [22]: Active; Activity [23]: Active; Activity [24]: Active; Activity [25]: Active; Activity [26]: 14.4%; Activity [27]: 47.49%; Activity [28]: 64.83%; Activity [29]: 59.6%; Activity [30]: 19.1%; Activity [31]: 20.6%; Activity [32]: 31.5%; Activity [33]: 54%; Activity [34]: 14.3%; Activity [35]: 0.1%; Activity [36]: 66.1%; fold change (FC) [39]: ~2.5
N=C(N)c1ccc(-c2ccc(-c3ccc(Cl)cc3)o2)nc1 | 1.55 | 1.73 | 1.64 | 77 | Active | Active | Active | Active | Active | Active | Active | Active | Active | Active | Active | Active | Active | Active | Active | Active | Activity [21]: Active; Activity [22]: Active; Activity [23]: Active; Activity [24]: Active; Activity [25]: Active; Activity [26]: 14.19%; Activity [27]: 33.72%; Activity [28]: 46.65%; Activity [29]: 9.2%; Activity [30]: 43.6%; Activity [31]: 47.1%; Activity [32]: 28.7%; Activity [33]: 54%; Activity [34]: 16.9%; Activity [35]: 0.4%; Activity [36]: 70.5%; fold change (FC) [37]: ~3; fold change (FC) [38]: ~2.3; fold change (FC) [39]: ~2.5; inhibition (INH) [40]: ~55%

Reference: ChEMBL document CHEMBL5579789, “Azafuramidines as potential anticancer Agents: Pro-apoptotic profile and cell cycle arrest” (Bioorg Med Chem Lett, 2024)
